The target in experiment [1] is 5-hydroxytryptamine receptor 2A (Homo sapiens, UniProt P28223). The experiment can be described thus: Affinity of Compounds for 5-HT2A Receptors.
Description: The affinity of the compounds of the present disclosure for the 5-HT2A receptors was determined by the method of radioligand competition experiment. In the first step, a cell membrane component containing specific 5-HT2A receptor was prepared. A 10 cm dish was used for transfection with 10 ng of the 5-HT2A receptor and 40 μL of PEI. After 48 hours, the 10 cm dish was taken out from the cell incubator and the cultured cells had expressed the 5-HT2A receptor. A vacuum pump was used to suck off the culture medium, 3 mL of lysis buffer was added to each culture dish, and the cells were placed in a 4° C. cold room for 10 minutes. After the cells were detached, the cells were transferred to a 15 mL centrifuge tube and centrifuged at 1500 rpm for 5 minutes at 4° C., and the supernatant was discarded. The cell pellet was transferred to a tissue homogenizer, and 3 mL of lysis buffer was added and fully ground until the cells were broken. Then, cell suspension was equally aliquoted into several EP tubes, centrifuged at 12000 rpm for 5 minutes at 4° C., and the supernatant was discarded. The precipitate was the cell membrane component containing the 5-HT2A receptor. […] First, a standard binding buffer was added to the cell membrane component containing the 5-HT2A receptor, and the cell membrane was disrupted and resuspended with an electric tissue homogenizer. […]
Another experiment has as its target D(2) dopamine receptor (Homo sapiens, UniProt P14416). Put plainly: Affinity of Compounds for Dopamine D2 Receptors.

From BindingDB's records for patent US20240383913 (Chinese Academy of Sciences, 2024) come the findings set out here.

Structures are written as SMILES.

Chain of 5-hydroxytryptamine receptor 2A (P28223 whole entry): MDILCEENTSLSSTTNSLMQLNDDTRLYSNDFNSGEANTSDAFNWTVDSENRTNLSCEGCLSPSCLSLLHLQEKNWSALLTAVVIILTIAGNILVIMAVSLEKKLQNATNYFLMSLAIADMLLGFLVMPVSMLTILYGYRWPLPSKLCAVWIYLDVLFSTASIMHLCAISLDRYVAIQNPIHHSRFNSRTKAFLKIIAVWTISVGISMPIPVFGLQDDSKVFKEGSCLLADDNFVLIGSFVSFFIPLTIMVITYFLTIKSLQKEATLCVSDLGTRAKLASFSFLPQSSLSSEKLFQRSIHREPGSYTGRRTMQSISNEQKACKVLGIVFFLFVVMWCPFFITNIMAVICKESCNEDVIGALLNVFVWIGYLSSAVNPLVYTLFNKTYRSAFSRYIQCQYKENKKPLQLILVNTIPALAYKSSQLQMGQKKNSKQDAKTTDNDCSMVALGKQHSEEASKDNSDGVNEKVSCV
Chain of D(2) dopamine receptor (P14416 whole entry): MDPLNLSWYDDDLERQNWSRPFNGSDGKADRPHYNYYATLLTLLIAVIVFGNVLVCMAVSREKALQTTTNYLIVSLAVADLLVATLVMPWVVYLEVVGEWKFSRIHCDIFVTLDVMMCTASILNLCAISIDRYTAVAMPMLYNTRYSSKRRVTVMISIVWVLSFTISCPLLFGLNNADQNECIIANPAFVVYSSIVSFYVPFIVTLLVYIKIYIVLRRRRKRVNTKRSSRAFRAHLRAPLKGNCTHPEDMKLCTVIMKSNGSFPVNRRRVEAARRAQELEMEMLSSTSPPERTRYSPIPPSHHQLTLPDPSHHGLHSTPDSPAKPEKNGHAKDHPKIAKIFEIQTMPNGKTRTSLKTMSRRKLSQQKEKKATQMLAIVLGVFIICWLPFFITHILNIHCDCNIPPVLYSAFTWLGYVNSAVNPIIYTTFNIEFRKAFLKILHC
Description for D(2) dopamine receptor: The affinity of the compounds of the present disclosure for the dopamine D2 receptors was determined by the method of radioligand competition experiment. In the first step, a cell membrane component containing specific dopamine D2 receptors was prepared. A 10 cm culture dish was used for transfection with 10 ng of the dopamine D2 receptors and 40 μL of polyethylenimine (PEI hereafter). After 48 hours, the 10 cm culture dish was taken out from the cell culture incubator and the cultured cells had expressed the dopamine D2 receptors. A vacuum pump was used to suck off the culture medium, 3 mL of lysis buffer was added to each culture dish, and the cells were placed in a 4° C. cold room for 10 minutes. After the cells were detached, the cells were transferred to a 15 mL centrifuge tube and centrifuged at 1500 rpm for 5 minutes at 4° C., and the supernatant was discarded. The cell pellet was transferred to a tissue homogenizer, and 3 mL of lysis buffer was added and fully ground until the cells were broken. Then, cell suspension was equally aliquoted into several EP tubes, centrifuged at 12000 rpm for 5 minutes at 4° C., and the supernatant was discarded. The precipitate was the cell membrane component containing the dopamine D2 receptors. […]

As to `c1ccc(-c2cccc(CN3CCN4c5cccc6scc(c56)CC4C3)c2)cc1` (configuration not stated) [US20240383913, Compound I-7], the figures for the inhibition constant (Ki) (in experiment [1]; on D(2) dopamine receptor) were 910 nM and 310 nM, respectively.
